Test results reported in patent US20240390396A1 (priority 2021, published 2024).
“And” between values parts separate entries of the source, which are not always exact repeats. Identical values can stand only once. Like-named read-outs stand apart in the source and are kept apart here.

How the values were obtained:
RAW 264.7 macrophages = assay: Nitric oxide (NO) secretion by LPS-activated macrophages (Griess reagent); format: cell-based; settings: for effect of ECS receptor antagonists alone on NO secretion: 24 h (FIG. 5B)
Method: NO secretion was determined by measuring the amount of nitrite, using a Griess reagent (Promega) according to manufacturer's protocol. Briefly, 50 μl of supernatant was added to 96-well plate, followed by 50 μl sulphanilamide and 50 μl N−1-napthylethylenediamine dihydrochloride (NED). The optical densities were quantified using a multi-well spectrophotometer, and nitrite concentrations were estimated using a standard nitrite curve. Results were calculated as the percentage of control cultures.
The poor bioavailability of CBD may hamper its effectiveness as an anti-inflammatory drug. To test whether antagonists of the ECS may potentiate the anti-inflammatory effect of CBD, the inventors used the RAW 264.7 macrophages as a model system for inflammation. Exposure of cells to bacterial lipopolysaccharide (LPS) initiates a signal transduction cascade that leads to increased production of nitrite oxide (NO), secretion of pro-inflammatory cytokines, and acquisition of enhanced bactericidal activity.
First, the inventors studied the response of LPS-activated RAW 264.7 cells to CBD. Cells were cultured with LPS, with/without CBD at 0.63-5 μM concentrations for 24 hrs. Supernatants were harvested for measuring NO by spectrophotometry using the Greiss reagent. […] To test whether antagonists of the ECS can modify the anti-inflammatory activity of CBD, the inventors further exposed the cells to LPS, CBD, ECS antagonists (detailed in Table 2), and their combinations. Two distinct CB2 antagonists (AM630 and COR170) were tested, as CB2 is known to be involved in the regulation of inflammation.

MDA-MB-231 cells = settings: 24 h
MDA-MB-468 cells = format: cell-based; settings: 24 h; 1:2 dilution of the original doses: cannabis containing 2 μM CBD; 16 μM capsazepine; capsaicin and thapsigargin diluted 1:2 from 400 μM and 5 μM; alone or combined
MCF7 cells = format: cell-based; settings: 24 h; cannabis containing 4 μM CBD; 32 μM capsazepine; 400 μM capsaicin; 5 μM thapsigargin; alone or combined
T47D cells = format: cell-based; settings: 24 h; cannabis containing 4 μM CBD; 32 μM capsazepine; 400 μM capsaicin; 5 μM thapsigargin; alone or combined
[1] = cannabis containing 4 μM CBD, 400 μM capsaicin, 5 μM thapsigargin, alone or combined

Structure (SMILES)	NO secretion, dose response (RAW 264.7 macrophages; 24 h, CBD 0.63-5 μM (FIG. 5A))	activity at 2.5 µM (RAW 264.7 macrophages; Mus musculus, RAW264.7, 24 h, 2.5 μM CBD, with or without 10 μM capsazepine, read-out: NO secretion, % of control cells treated with vehicle (DMSO))	cell survival (MDA-MB-231 cells; 2.5 μM pure CBD, with or without 32 μM capsazepine (FIG. 1D))	effect of ECS receptor antagonists alone on NO secretion (RAW 264.7 macrophages)	cell survival (MDA-MB-468 cells)	cell survival (MDA-MB-231 cells; [1])	cell survival (MCF7 cells)	cell survival (T47D cells)	effect of ECS receptor antagonist on cytotoxic activity of cannabis (MDA-MB-231 cells; co-treatment with CBD-enriched cannabis (FIG. 1B))
C=C(C)[C@@H]1CCC(C)=C[C@H]1c1c(O)cc(CCCCC)cc1O [CBD, cannabidiol]	reduced NO secretion in a dose dependent manner	6 ± 5%	72±13%						
CCC(=O)NC[C@H](Cc1ccc(OCCc2nc(-c3ccccc3)oc2C)cc1)N/C(C)=C\C(=O)c1ccc(C(F)(F)F)cc1 [GW6471]				mild effect on NO secretion					
COc1cc(CNC(=O)CCCC/C=C/C(C)C)ccc1O [capsaicin]					60±11% and 62±9%	34±25%	19±9%	39±11%	
Oc1cc2c(cc1O)CN(C(=S)NCCc1ccc(Cl)cc1)CCC2 [capsazepine]				mild effect on NO secretion	80±9%		40±7%	37±21%	enhanced the cytotoxic effect of cannabis
C/C=C(/C)C(=O)O[C@H]1C(C)=C2[C@H]([C@@H]1OC(=O)CCCCCCC)[C@@](C)(OC(C)=O)C[C@H](OC(=O)CCC)[C@@]1(O)[C@H]2OC(=O)[C@@]1(C)O [thapsigargin]						34±23%	24±6%	72±7%	
